Experimental data published in patent US20030139352A1, “Inhibitors of ABC drug transporters in cancer cells” (priority 2001, published 2003).
Like-named read-outs stand apart in the source and are kept apart here. One block for each molecule: values may come before it.

Tests used:
[1] = system: CLA (control) Monolayer, LLC-PK1 cells; conditions: 10 μM in donor
[2] = molecular target: human PGP membranes (PGP-associated ATPase) (Homo sapiens, UniProt P08183); conditions: for ATPase Activity: orthovanadate-sensitive; for ATPase Activity, basal activity subtracted: human, 20 min
human PGP membranes (PGP-associated ATPase), sequence (P08183 whole entry): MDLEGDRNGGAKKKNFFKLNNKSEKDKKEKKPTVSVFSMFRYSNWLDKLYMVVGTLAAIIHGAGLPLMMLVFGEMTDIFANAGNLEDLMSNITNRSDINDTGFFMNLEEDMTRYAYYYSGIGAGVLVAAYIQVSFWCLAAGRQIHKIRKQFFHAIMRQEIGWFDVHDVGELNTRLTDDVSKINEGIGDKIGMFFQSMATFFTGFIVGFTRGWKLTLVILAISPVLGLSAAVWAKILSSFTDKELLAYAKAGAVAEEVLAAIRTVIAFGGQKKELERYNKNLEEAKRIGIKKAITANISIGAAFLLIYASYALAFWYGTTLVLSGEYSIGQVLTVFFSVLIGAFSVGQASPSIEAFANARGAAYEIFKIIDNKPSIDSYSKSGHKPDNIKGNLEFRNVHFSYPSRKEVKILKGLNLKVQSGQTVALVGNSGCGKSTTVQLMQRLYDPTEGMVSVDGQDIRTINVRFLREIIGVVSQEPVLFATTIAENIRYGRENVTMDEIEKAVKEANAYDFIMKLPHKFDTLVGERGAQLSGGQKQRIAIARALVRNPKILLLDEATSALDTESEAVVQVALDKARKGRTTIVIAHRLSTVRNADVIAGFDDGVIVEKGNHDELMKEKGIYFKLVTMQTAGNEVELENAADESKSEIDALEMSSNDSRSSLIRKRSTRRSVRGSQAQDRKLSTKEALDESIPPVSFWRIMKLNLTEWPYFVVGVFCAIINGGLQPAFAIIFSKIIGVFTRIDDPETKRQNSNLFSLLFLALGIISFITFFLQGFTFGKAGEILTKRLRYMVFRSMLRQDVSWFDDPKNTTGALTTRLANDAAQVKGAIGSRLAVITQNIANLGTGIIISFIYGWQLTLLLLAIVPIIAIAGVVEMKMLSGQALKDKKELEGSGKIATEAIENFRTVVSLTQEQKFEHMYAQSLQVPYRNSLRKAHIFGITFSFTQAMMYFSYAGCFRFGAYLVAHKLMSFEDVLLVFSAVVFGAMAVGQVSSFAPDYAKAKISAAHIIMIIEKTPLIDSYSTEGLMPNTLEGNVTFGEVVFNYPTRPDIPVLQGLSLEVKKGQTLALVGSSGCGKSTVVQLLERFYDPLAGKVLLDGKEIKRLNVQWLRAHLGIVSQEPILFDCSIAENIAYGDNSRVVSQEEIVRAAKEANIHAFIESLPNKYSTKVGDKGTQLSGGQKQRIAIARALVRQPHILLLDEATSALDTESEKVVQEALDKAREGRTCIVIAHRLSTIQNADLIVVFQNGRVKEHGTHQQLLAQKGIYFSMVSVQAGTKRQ
Experimental: The DMSO concentration (1.0%) was constant for all conditions within the experiment.
The test substances were incubated in the PGP membranes and supplemented with MgATP, with and without sodium orthovanadate present. Orthovanadate inhibits PGP by trapping MgADP in the nucleotide binding site. Thus, the ATPase activity measured in the presence of orthovanadate represents non-PGP ATPase activity and was subtracted from the activity generated without orthovanadate to yield ATPase activity.
(§1) ATPase assays were conducted in 96-well microtiter plates. A 0.06 mL reaction mixture containing 40 μg PGP membranes, test substance, and 4 mM MgATP, in buffer containing 50 mM Tris-MES, 2 mM EGTA, 50 mM KCl, 2 mM dithiothreitol, and 5 mM sodium azide, plus organic solvent was incubated at 37° C. for 20 minutes. […] Identical reaction mixtures containing 100 μM sodium orthovanadate were assayed in parallel. The reactions were stopped by the addition of 30 μl of 10% SDS+Antifoam A. The incubations were followed with addition of 200 μl of 35 mM Ammonium Molybdate in 15 mM Zinc Acetate: 10% Ascorbic Acid (1:4) and incubated for an additional 20 minutes at 37° C. Additionally, 0.06 mL aliquots of potassium phosphate standards prepared in the buffer described above, were incubated in the plates containing the test and control substances, with SDS and detection reagent added. The liberation of inorganic phosphate was detected by its absorbance at 800 nm and quantitated by comparing the absorbance to a phosphate standard curve. The concentration dependence of the PGP was analyzed for evidence of saturation of PGP-associated ATPase activity, and apparent kinetic parameters were calculated by non-linear regression.
as §1, with “plates.” for “plates. A 0.06 mL reaction mixture containing 40 μg PGP membranes, test substance, and 4 mM MgATP, in buffer containing 50 mM Tris-MES, 2 mM EGTA, 50 mM KCl, 2 mM dithiothreitol, and 5 mM sodium azide, plus organic solvent was incubated at 37° C. for 20 minutes.”, “activity.” for “activity, and apparent kinetic parameters were calculated by non-linear regression.”
as §1, with “plates.” for “plates. A 0.06 mL reaction mixture containing 40 μg PGP membranes, test substance, and 4 mM MgATP, in buffer containing 50 mM Tris-MES, 2 mM EGTA, 50 mM KCl, 2 mM dithiothreitol, and 5 mM sodium azide, plus organic solvent was incubated at 37° C. for 20 minutes.”

human PGP [3] = molecular target: T1, human PGP (Homo sapiens, UniProt P08183); test: Inhibition of human PGP-mediated [3H]-digoxin transport in 15B-J (LLC-PK1 expressing human PGP) monolayers
T1 sequence (P08183 whole entry): as above

[4] = molecular target: human PGP (P-glycoprotein) (Homo sapiens, UniProt P08183); test: as above; conditions: human, pH 7.2, Ketoconazole Normalized % Inhibition of Digoxin Transport, normalized to 25 μM ketoconazole
human PGP (P-glycoprotein), sequence (P08183 whole entry): as above

human PGP [5] = molecular target: T1, human PGP; conditions: 15B-J vs CLA monolayers

pmoles in Receiver ([1]; A→B, 15 min): 8.4 pmol | pmoles in Receiver ([1]; A→B, 30 min): 2.76 pmol | pmoles in Receiver ([1]; A→B, 60 min): 1.6 pmol | pmoles in Receiver ([1]; A→B, 90 min): 2.0 pmol | pmoles in Receiver ([1]; A→B, 120 min): 1.7 pmol | pmoles in Receiver ([1]; B→A, 15 min): 1.0 pmol | pmoles in Receiver ([1]; B→A, 30 min): 0.86 pmol | pmoles in Receiver ([1]; B→A, 60 min): 0.7 pmol | pmoles in Receiver ([1]; B→A, 90 min): 0.9 pmol | pmoles in Receiver ([1]; B→A, 120 min): 1.9 pmol
SMILES: Cc1ccc(NC(=O)c2ccc(CN3CCNCC3)cc2)cc1Nc1nccc(-c2cccnc2)n1 [Gleevec metabolite]

SMILES: C=CCN1CC[C@]23c4c5ccc(O)c4O[C@H]2C(=O)CC[C@@]3(O)[C@H]1C5 [Naloxone, naloxone]
ATPase Activity ([2]; 0.001 μM test substance): -3.8 nmol/mg/min | ATPase Activity ([2]; 0.01 μM test substance): -0.8 nmol/mg/min | ATPase Activity ([2]; 0.03 μM test substance): 0.7 nmol/mg/min | ATPase Activity ([2]; 0.1 μM test substance): 3.6 nmol/mg/min | ATPase Activity ([2]; 0.3 μM test substance): -0.6 nmol/mg/min | ATPase Activity ([2]; 1.0 μM test substance): 0.4 nmol/mg/min | ATPase Activity ([2]; 3.0 μM test substance): 1.7 nmol/mg/min | ATPase Activity ([2]; 10 μM test substance): 2 nmol/mg/min | ATPase Activity ([2]; 30 μM test substance): 1.9 nmol/mg/min | ATPase Activity ([2]; 100 μM test substance): 1.8 nmol/mg/min | effect on PGP-associated ATPase activity (in words) ([2]; semi-quantitative assay): not to limit the ATPase activity | inhibition of PGP-mediated digoxin transport (in words) (human PGP [3]; 5 μM [3H]-digoxin, 15B-J monolayers): the inhibition was not concentration-dependent | Activity 2 (human PGP [3]; high capacity, low affinity binding site): 30 µM | Activity 1 (human PGP [3]; low capacity, high affinity binding site): 1.0 nM | inhibition at 90 min, 0.0001 μM ([4]; 0.0001 μM test substance): 6.2% | inhibition at 90 min, 0.0003 μM ([4]; 0.0003 μM test substance): 8.4% | inhibition at 90 min, 0.001 μM ([4]; 0.001 μM test substance): 10% | inhibition at 90 min, 0.01 μM ([4]; 0.01 μM test substance): -4.5% | inhibition at 90 min, 0.03 μM ([4]; 0.03 μM test substance): 5.7% | inhibition at 90 min, 0.1 μM ([4]; 0.1 μM test substance): -2.7% | inhibition at 90 min, 1 μM ([4]; 1.0 μM test substance): 7.8% | inhibition at 90 min, 3 μM ([4]; 3.0 μM test substance): -11% | inhibition at 90 min, 10 μM ([4]; 10 μM test substance): 0.4% | inhibition at 90 min, 30 μM ([4]; 30 μM test substance): 41% | inhibition at 90 min, 100 μM ([4]; 100 μM test substance): 37%

ATPase Activity, basal activity subtracted ([2]; 0.007 μM): -0.3 nmol/mg/min | ATPase Activity, basal activity subtracted ([2]; 0.01 μM): -0.4 nmol/mg/min | ATPase Activity, basal activity subtracted ([2]; 0.03 μM): -0.9 nmol/mg/min | ATPase Activity, basal activity subtracted ([2]; 0.05 μM): -0.9 nmol/mg/min | ATPase Activity, basal activity subtracted ([2]; 0.1 μM): -1.6 nmol/mg/min | ATPase Activity, basal activity subtracted ([2]; 0.42 μM): 2.5 nmol/mg/min | ATPase Activity, basal activity subtracted ([2]; 1.67 μM): 11.1 nmol/mg/min | ATPase Activity, basal activity subtracted ([2]; 3.33 μM): 12.8 nmol/mg/min | ATPase Activity, basal activity subtracted ([2]; 6.67 μM): 14.4 nmol/mg/min | transport by human PGP (in words) (human PGP [5]): significantly transported by human PGP
SMILES: CC(=O)O[C@H]1C(=O)[C@@]2(C)[C@H]([C@H](OC(=O)c3ccccc3)[C@]3(O)C[C@H](OC(=O)[C@H](O)[C@@H](NC(=O)c4ccccc4)c4ccccc4)C(C)=C1C3(C)C)[C@]1(OC(C)=O)CO[C@@H]1C[C@@H]2O [Taxol, taxol]
effect on PGP-associated ATPase activity (in words) [2]: stimulates PGP-associated ATPase activity in a dose dependent manner
